{"source": "patent US20110237497A1", "about": "“COMPOSITIONS OF A V-ATPASE INHIBITOR IN COMBINATION WITH A GLUCOCORTICOID RECEPTOR LIGAND AND METHODS OF USE” (priority 2009, published 2011)", "system": "GR", "assay": "GR transactivation, MMTV (pHHLuc) luciferase reporter in AD293 cells", "type": "cell-based", "details": "Dexamethasone 1 nM, 10 nM, 100 nM and 1 μM with or without Concanamycin A 1 nM, FIG. 2", "procedure": "(§1) AD293 cells in 24 wells plate were transfected with 0.1 ng GR, 100 ng pHHLuc reporter together with 10 ng Renilla control plasmids in each well, then induced by EtOH (vehicle control), Dexamethasone (1 nM, 10 nM, 100 nM and 1 μM), with or without Bafilomycin A1 (100 nM). Dual-Luciferase values were measured by Promega standard manual.\nas §1, with “Concanamycin A (1” for “Bafilomycin A1 (100”\nFIG. 8 is a graph showing a summary of V-ATPase inhibitors in enhancing GR-Dex activity on MMTV (pHHLuc) reporter in AD293 cells. AD293 cells in 24 wells plate were transfected with 0.1 ng GR, 100 ng pHHLuc reporter together with 10 ng Renilla control plasmids in each well, then induce by EtOH (vehicle control), Dexamethasone (10 nM), with different V-ATPase inhibitors (Bafilomycin A1 100 nM; Concanamycin A 1 nM; Lobatamide A 100 nM) or vehicle control. Dual-Luciferase values were measured by Promega standard manual."}
{"compound": "C/C=C/C1OC(O)(C(C)C(O)C(C)C2OC(=O)/C(OC)=C/C(C)=C/C(C)C(O)C(CC)C(O)C(C)C/C(C)=C/C=C/C2OC)CC(OC2CC(O)C(OC(N)=O)C(C)O2)C1C", "note": "(stereo not shown) [Concanamycin A, 6-(2-(4-((4E,6E,14E,16Z)-11-ethyl-10,12-dihydroxy-3,17-dimethoxy-7,9,13,15-tetramethyl-18-oxooxacyclooctadeca-4,6,14,16-tetraen-2-yl)-3-hydroxypentan-2-yl)-2-hydroxy-5-methyl-6-((E)-prop-1-enyl)tetrahydro-2H-pyran-4-yloxy)-4-hydroxy-2-methyltetrahydro-2H-pyran-3-yl carbamate]", "values": [{"measurement": "GR-dex dose-response of induction on MMTV (pHHLuc) reporter (GR transactivation)", "value": "synergizes with Dex"}]}
